Test results taken from patent US6599925B2 (Wyeth, priority 2001, dated 2003).
Structures can show the parent of a compound that is named as a salt.

Legend:
[1] = target: T1, recombinant human plasminogen activator inhibitor-1 (PAI-1) (Homo sapiens, UniProt P05121); assay: Primary Screen for the PAI-1 Inhibition (chromogenic tPA assay); format: biochemical; settings: for inhibition at 25 µM: 25 μM test compound; for IC50: footnote b: determined by a modification of the Primary Screen for PAI-1 Inhibition
T1 construct: purchased Molecular Innovations, Royal Oak, Mich
T1 sequence (P05121 24-402): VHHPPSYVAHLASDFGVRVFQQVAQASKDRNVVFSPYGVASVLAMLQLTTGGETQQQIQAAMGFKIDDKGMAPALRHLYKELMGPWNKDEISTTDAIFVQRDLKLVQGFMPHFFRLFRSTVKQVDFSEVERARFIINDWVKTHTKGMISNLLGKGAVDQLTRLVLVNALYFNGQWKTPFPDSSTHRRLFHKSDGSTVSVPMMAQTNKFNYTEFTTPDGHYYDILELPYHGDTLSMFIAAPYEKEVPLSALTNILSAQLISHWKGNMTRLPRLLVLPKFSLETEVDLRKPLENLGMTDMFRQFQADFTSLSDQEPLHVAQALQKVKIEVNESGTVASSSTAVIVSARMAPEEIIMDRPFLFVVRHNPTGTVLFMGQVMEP
Experimental: Primary Screen for the PAI-1 Inhibition
Test compounds are dissolved in DMSO at a final concentration of 10 mM, then diluted 100×in physiologic buffer. The inhibitory assay is initiated by the addition of the test compound (1-100 μM final concentration, maximum DMSO concentration of 0.2%) in a pH 6.6 buffer containing 140 nM recombinant human plasminogen activator inhibitor-1 (PAI-1; Molecular Innovations, Royal Oak, Mich.). Following a 1 hour incubation at room temperature, 70 nM of recombinant human tissue plasminogen activator (tPA) is added, and the combination of the test compound, PAI-1 and tPA is incubated for an additional 30 minutes. Following the second incubation, Spectrozyme-tPA (American Diagnostica, Greenwich, Conn.), a chromogenic substrate for tPA, is added and absorbance read at 405 nm at 0 and 60 minutes. Relative PAI-1 inhibition is equal to the residual tPA activity in the presence of the test compounds and PAI-1. Control treatments include the complete inhibition of tPA by PAI-1 at the molar ratio employed (2:1), and the absence of any effect of the test compound on tPA alone.

human PAI-1 = human PAI-1 (Homo sapiens, UniProt P05121); assay: Assay for determining IC50 of inhibition of PAI-1 (Antibody Assay); format: binding; settings: footnote a: determined by the Antibody Assay; active PAI-1 bound to tPA-coated plate, pH 7.5
human PAI-1, sequence (P05121 24-402): as above
Experimental: Assay for Determining IC50 of Inhibition of PAI-1
This assay is based upon the non-SDS dissociable interaction between tPA and active PAI-1. Assay plates are initially coated with human tPA (10 μg/ml). Test compounds are dissolved in DMSO at 10 mM, then diluted with physiologic buffer (pH 7.5) to a final concentration of 1-50 μM. The test compounds are incubated with human PAI-1 (50 ng/ml) for 15 minutes at room temperature. The tPA-coated plate is washed with a solution of 0.05% Tween 20 and 0.1% BSA, then the plate is blocked with a solution of 3% BSA. An aliquot of the test compound/PAI-1 solution is then added to the tPA-coated plate, incubated at room temperature for 1 hour, and washed. Active PAI-1 bound to the plate is assessed by adding an aliquot of a 1:1000 dilution of the 33B8 monoclonal antibody against human PAI-1, and incubating the plate at room temperature for 1 hour (Molecular Innovations, Royal Oak, Mich.). The plate is again washed, and a solution of goat anti-mouse IgG-alkaline phosphatase conjugate is added at a 1:50,000 dilution in goat serum. The plate is incubated 30 minutes at room temperature, washed, and a solution of alkaline phosphatase substrate is added. The plate is incubated 45 minutes at room temperature, and color development is determined at OD405nm. The quantitation of active PAI-1 bound to tPA at varying concentrations of the test compound is used to determine the IC50. Results are analyzed using a logarithmic best-fit equation. The assay sensitivity is 5 ng/ml of human PAI-1 as determined from a standard curve ranging from 0-100 ng/ml.

SMILES | inhibition at 25 µM [1] | melting point | IC50 [1] | IC50 (human PAI-1)
CCCCC(=O)c1c(-c2ccc3c(Br)c(OCC(=O)O)ccc3c2)oc2ccccc12 [Example 5, 2-{[1-Bromo-6-(3-pentanoyl-1-benzofuran-2-yl)-2-naphthyl]oxy}acetic acid] | 47% | 146 to 147 °C | – | –
CCCCC(=O)c1c(-c2ccc3cc(OCc4nnn[nH]4)ccc3c2)oc2ccccc12 [Example 3, 1-{2-[6-(1H-1,2,3,4-Tetraazol-5-ylmethoxy)-2-naphthyl]-1-benzofuran-3-yl}-1-pentanone] | – | 150 to 151 °C | 12.7 µM | –
O=C(O)COc1ccc2cc(-c3oc4ccccc4c3C(=O)CC3CCCC3)ccc2c1 [Example 10, 2-({6-[3-(2-Cyclopentylacetyl)-1-benzofuran-2-yl]-2-naphthyl}oxy)acetic acid] | – | 177 to 178 °C | – | –
CCCCC(=O)c1c(-c2ccc3c(Br)c(OC(Cc4ccccc4)C(=O)O)ccc3c2)oc2ccccc12 (centres unmarked) [Example 19, 2-{[1-Bromo-6-(3-pentanoyl-1-benzofuran-2-yl)-2-naphthyl]oxy}-3-phenylpropanoic acid] | – | 115 to 117 °C | 6.2 µM | –
CC(C)(C)CC(=O)c1c(-c2ccc3c(Br)c(OCC(=O)O)ccc3c2)oc2ccccc12 [Example 8, 2-({1-Bromo-6-[3-(3,3-dimethylbutanoyl)-1-benzofuran-2-yl]-2-naphthyl}oxy)acetic acid] | – | 151 to 153 °C | 11.9 µM | –
CCCCC(=O)c1c(-c2ccc3c(-c4ccc(C(F)(F)F)cc4)c(OCC(=O)O)ccc3c2)oc2ccccc12 [Example 15, 2-({6-(3-Pentanoyl-1-benzofuran-2-yl)-1-[4-(trifluoromethyl)phenyl]-2-naphthyl}oxy) acetic acid, sodium salt] | – | – | – | 8.2 µM
CCCCC(=O)c1c(-c2ccc3c(C)c(OCC(=O)O)ccc3c2)oc2ccccc12 [Example 22, 2-{[1-Methyl-6-(3-pentanoyl-1-benzofuran-2-yl)-2-naphthyl]oxy}acetic acid] | – | 153 to 155 °C | – | 13.3 µM
CCCCC(=O)c1c(-c2ccc3c(-c4ccc(C(F)(F)F)cc4)c(OCC(=O)O)ccc3c2)oc2ccccc12 (as salt: sodium) [Example 15, 2-({6-(3-Pentanoyl-1-benzofuran-2-yl)-1-[4-(trifluoromethyl)phenyl]-2-naphthyl}oxy) acetic acid, sodium salt] | – | 274 to 275 °C (dec.) | – | –
CCCCCc1c(-c2ccc3cc(OCc4nnn[nH]4)ccc3c2)oc2ccccc12 [Example 34, 5-[6-(3-Pentyl-benzofuran-2-yl)-naphthalen-2-yloxymethyl]-1H-tetrazole] | – | 178 to 180 °C | – | 8.17 µM
CCCCC(=O)c1c(-c2ccc3c(Cl)c(OCC(=O)O)ccc3c2)oc2ccccc12 [Example 24, 2-{[1-Chloro-6-(3-pentanoyl-1-benzofuran-2-yl)-2-naphthyl]oxy}acetic acid] | – | 142 to 143 °C | – | 11 µM
CCCCC(=O)c1c(-c2ccc3cc(OCc4nnn[nH]4)ccc3c2)oc2ccc(Cl)cc12 [Example 32, 1-{5-Chloro-2-[6-(1H-tetrazol-5-ylmethoxy)-naphthalen-2-yl]-benzofuran-3-yl}-pentan-1-one] | 39% | 178 to 180 °C | – | –
CCCCC(=O)c1c(-c2ccc3c(Br)c(OCC(=O)O)ccc3c2)oc2ccc(Cl)cc12 [Example 31, [1-Bromo-6-(5-chloro-3-pentanoyl-benzofuran-2-yl)-naphthalen-2-yloxy]-acetic acid] | – | 130 to 132 °C | 17.1 µM | –
CC(C)CC(=O)c1c(-c2ccc3cc(OCC(=O)O)cc(Br)c3c2)oc2ccccc12 [Example 7] | – | 140 to 142 °C | – | –
CCCCC(=O)c1c(-c2ccc3c(C)c(OCc4nnn[nH]4)ccc3c2)oc2ccccc12 [Example 20, 1-{2-[5-Methyl-6-(1H-1,2,3,4-tetraazol-5-ylmethoxy)-2-naphthyl]-1-benzofuran-3-yl}-1-pentanone] | – | 162 to 164 °C | – | 24.2 µM
CC(C)CC(=O)c1c(-c2ccc3c(Br)c(OCC(=O)O)ccc3c2)oc2ccccc12 [Example 7] | – | – | 14.7 µM | –
O=C(O)COc1ccc2cc(-c3oc4ccccc4c3C(=O)CC3CCCC3)ccc2c1Br [Example 17, 2-({1-Bromo-6-[3-(2-cyclopentylacetyl)-1-benzofuran-2-yl]-2-naphthyl}oxy)acetic acid] | – | 150 to 152 °C | – | 2.7 µM
CCCCCc1c(-c2ccc3c(Br)c(OCc4nn[nH]n4)ccc3c2)oc2ccccc12 [Example 37] | – | – | 4.59 µM | –
CCCCC(=O)c1c(-c2ccc3c(Br)c(OCc4nnn[nH]4)ccc3c2)oc2ccccc12 [Example 1, 1-{2-[5-Bromo-6-(1H-1,2,3,4-tetraazol-5-ylmethoxy)-2-naphthyl]-1-benzofuran-3-yl}-1-pentanone] | – | – | 7.7 µM | –
CCCCC(=O)c1c(-c2ccc3c(Br)c(OCc4nnn[nH]4)ccc3c2)oc2ccc(Cl)cc12 [Example 30, 1-{2-[5-Bromo-6-(1H-tetrazol-5-ylmethoxy)-naphthalen-2-yl]-5-chloro-benzofuran-3-yl}-pentan-1-one] | 46% | 133 to 135 °C | – | –
CCCCC(=O)c1c(-c2ccc3cc(OCC(=O)O)ccc3c2)oc2ccccc12 [Example 2, 2-{[6-(3-pentanoyl-1-benzofuran-2-yl)-2-naphthyl]oxy}acetic acid] | 43% | 130 to 132 °C | – | –
O=C(O)COc1ccc2cc(-c3oc4ccccc4c3CCC3CCCC3)ccc2c1Br [Example 11, 2-({1-Bromo-6-[3-(2-cyclopentylethyl)-1-benzofuran-2-yl]-2-naphthyl}oxy)acetic acid] | 24% | 155 to 156 °C | – | –
CCCCC(=O)c1c(-c2ccc3cc(OCC(=O)O)ccc3c2)oc2ccc(Cl)cc12 [Example 33, [6-(5-Chloro-3-pentanoyl-benzofuran-2-yl)-naphthalen-2-yloxy]-acetic acid] | – | 158 to 160 °C | 10.4 µM | –
O=C(c1ccccc1)c1c(-c2ccc3c(Br)c(OCc4nnn[nH]4)ccc3c2)oc2ccccc12 [Example 27, {2-[5-Bromo-6-(1H-tetraazol-5-ylmethoxy)-2-naphthyl]-1-benzofuran-3-yl}(phenyl) methanone] | 35% | > 183 °C (dec.) | – | –
Brc1c(OCc2nnn[nH]2)ccc2cc(-c3oc4ccccc4c3CCC3CCCC3)ccc12 [Example 12, 5-[({1-Bromo-6-[3-(2-cyclopentylethyl)-1-benzofuran-2-yl]-2-naphthyl}oxy)methyl]-1H-1,2,3,4-tetraazole] | – | 192 to 194 °C | – | –
O=C(O)COc1ccc2cc(-c3oc4ccccc4c3C(=O)c3ccccc3)ccc2c1 [Example 26, {[6-(3-benzoyl-1-benzofuran-2-yl)-2-naphthyl]oxy}acetic acid] | 49% | 178 to 181 °C | – | –
CCCCCc1c(-c2ccc3c(C)c(OCc4nnn[nH]4)ccc3c2)oc2ccccc12 [Example 21, 5-({[1-Methyl-6-(3-pentyl-1-benzofuran-2-yl)-2-naphthyl]oxy}methyl)-1H-1,2,3,4-tetraazole] | 31% | 169 to 171 °C (dec.) | – | –
CCCCC(=O)c1c(-c2ccc3c(-c4ccc(C(F)(F)F)cc4)c(OCc4nnn[nH]4)ccc3c2)oc2ccccc12 [Example 18, 1-(2-{6-(1H-1,2,3,4-Tetraazol-5-ylmethoxy)-5-[4-(trifluoromethyl)phenyl]-2-naphthyl}-1-benzofuran-3-yl)-1-pentanone] | – | 189 to 191 °C | 6 µM | –
CCCCCc1c(-c2ccc3cc(OCC(=O)O)ccc3c2)oc2ccccc12 [Example 35, [6-(3-Pentyl-benzofuran-2-yl)-naphthalen-2-yloxy]-acetic acid] | – | 163 to 165 °C | 4.39 µM | –
O=C(O)C(Cc1ccccc1)Oc1ccc2cc(-c3oc4ccccc4c3Br)ccc2c1Br (centres unmarked) [Example 28, 2-{[1-Bromo-6-(3-bromo-1-benzofuran-2-yl)-2-naphthyl]oxy}-3-phenylpropanoic acid] | 56% | 206 to 209 °C | – | –
